Assays:
Gram positive rods (S) = experiment: MBC (minimum bactericidal concentration) test in Wash NEXT reagent; type: cell-based
Procedure: (§1) The stock organisms were thawed and subbed prior to beginning the MBC test. Molds were subbed to SDA plates one week before, and the bacteria were subbed to TAT agar plates 24 hours prior to the start of the test. All plates were incubated at 32 degrees C.
Each bacterial organism was inoculated into 40 ml sterile saline in a centrifuge tube to create a density of MacFarland #1. Two serial dilutions of 1:100 were then made, resulting in 10^−2 and 10^−4 concentrations. Each dilution was vortexed before it was sampled, and sterile Eppendorf pipette tips were used to make each transfer. The 10^−4 dilution was spiral plated to yield the initial inoculum concentration.
(§2) MBC trays were set up with the prepared test reagent. Using a Matrix pipettor, 100 μl aliquots of reagent were distributed into the wells, diluting the amount of preservative from 100% to 10% increments, using unpreserved reagent as the diluent. In one row, 100% non-preserved reagent acted as a positive control and served as a benchmark for a full mat of growth. In well #12H, 100 μl unpreserved reagent was pipetted, and this well was not inoculated with organisms, as it served as the negative control. Once all of the trays were prepared, the prepared bacteria/mold suspensions were poured into the MBC inoculating trays. These were placed onto the reagent trays, and 0.01 ml inoculum was introduced into the 100 μl of reagent in each well.
(§3) This was done by dipping a sterile cotton swab into each well, and absorbing all of the liquid in the well. The swab was rolled onto a TAT agar plate ensuring that the entire swab touches the agar. Plates ware incubated at 32 degrees C. for 48 hours to 7 days, depending on the organism. Observations for growth were performed by a scoring matrix using + for a full mat, +/− for some growth, a numerical value for an actual colony count, and—for no growth.
(§4) Below are tables that contain the data obtained in Example 1. The MBC test is scored by (+) indicating a full grown mat of organisms, equivalent to the organisms in the unpreserved reagent. (+/−) indicates there is some kill evident disturbing that mat or bringing the quantities down to an almost countable level. An actual number is the actual number of colonies growing at that concentration of preservative. (−) indicates no growth found. The MBC trays were stored at room temperature for the entire test.
(§5) The materials and methods and analysis of the MBC test were the same as in Example 1.

[1] = system: Aspergillus glaucus- DMO (Q); experiment: as above; type: cell-based
Procedure: as §1
For the molds, each organism was inoculated into 40 ml sterile saline in a centrifuge tube to create a density of MacFarland #5. Two serial dilutions of 1:100 were then made, resulting in 10^−2 and 10^−4 concentrations. Each dilution was vortexed before it was sampled, and sterile Eppendorf pipette tips were used to make each transfer. The 10^−4 dilution was spiral plated to yield the initial inoculum concentration.
as §2, §3, §4, §5

[N-]=[N+]=[N-] [Sodium Azide, sodium azide]
No kill @ 100%: total kill at % preservative (MBC) (Gram positive rods (S); at 14 days, listed as Na Azide) | total kill at % preservative (MBC) ([1]; at 14 days, listed as Na Azide)
+: MBC test growth score (Gram positive rods (S); 10% preservative, 8 hour) | MBC test growth score (Gram positive rods (S); 10% preservative, 24 hour) | MBC test growth score (Gram positive rods (S); 10% preservative, 48 hour) | MBC test growth score (Gram positive rods (S); 10% preservative, 72 hour) | MBC test growth score (Gram positive rods (S); 10% preservative, 7 day) | MBC test growth score (Gram positive rods (S); 10% preservative, 14 day) | MBC test growth score (Gram positive rods (S); 20% preservative, 8 hour) | MBC test growth score (Gram positive rods (S); 20% preservative, 24 hour) | MBC test growth score (Gram positive rods (S); 20% preservative, 48 hour) | MBC test growth score (Gram positive rods (S); 20% preservative, 72 hour) | MBC test growth score (Gram positive rods (S); 20% preservative, 7 day) | MBC test growth score (Gram positive rods (S); 20% preservative, 14 day) | MBC test growth score (Gram positive rods (S); 30% preservative, 8 hour) | MBC test growth score (Gram positive rods (S); 30% preservative, 24 hour) | MBC test growth score (Gram positive rods (S); 30% preservative, 48 hour) | MBC test growth score (Gram positive rods (S); 30% preservative, 72 hour) | MBC test growth score (Gram positive rods (S); 30% preservative, 7 day) | MBC test growth score (Gram positive rods (S); 30% preservative, 14 day) | MBC test growth score (Gram positive rods (S); 40% preservative, 8 hour) | MBC test growth score (Gram positive rods (S); 40% preservative, 24 hour) | MBC test growth score (Gram positive rods (S); 40% preservative, 48 hour) | MBC test growth score (Gram positive rods (S); 40% preservative, 72 hour) | MBC test growth score (Gram positive rods (S); 40% preservative, 7 day) | MBC test growth score (Gram positive rods (S); 40% preservative, 14 day) | MBC test growth score (Gram positive rods (S); 50% preservative, 8 hour) | MBC test growth score (Gram positive rods (S); 50% preservative, 24 hour) | MBC test growth score (Gram positive rods (S); 50% preservative, 48 hour) | MBC test growth score (Gram positive rods (S); 50% preservative, 72 hour) | MBC test growth score (Gram positive rods (S); 50% preservative, 7 day) | MBC test growth score (Gram positive rods (S); 50% preservative, 14 day) | MBC test growth score (Gram positive rods (S); 60% preservative, 8 hour) | MBC test growth score (Gram positive rods (S); 60% preservative, 24 hour) | MBC test growth score (Gram positive rods (S); 60% preservative, 48 hour) | MBC test growth score (Gram positive rods (S); 60% preservative, 72 hour) | MBC test growth score (Gram positive rods (S); 60% preservative, 7 day) | MBC test growth score (Gram positive rods (S); 60% preservative, 14 day) | MBC test growth score (Gram positive rods (S); 70% preservative, 8 hour) | MBC test growth score (Gram positive rods (S); 70% preservative, 24 hour) | MBC test growth score (Gram positive rods (S); 70% preservative, 48 hour) | MBC test growth score (Gram positive rods (S); 70% preservative, 72 hour) | MBC test growth score (Gram positive rods (S); 70% preservative, 7 day) | MBC test growth score (Gram positive rods (S); 70% preservative, 14 day) | MBC test growth score (Gram positive rods (S); 80% preservative, 8 hour) | MBC test growth score (Gram positive rods (S); 80% preservative, 24 hour) | MBC test growth score (Gram positive rods (S); 80% preservative, 48 hour) | MBC test growth score (Gram positive rods (S); 80% preservative, 72 hour) | MBC test growth score (Gram positive rods (S); 80% preservative, 7 day) | MBC test growth score (Gram positive rods (S); 80% preservative, 14 day) | MBC test growth score (Gram positive rods (S); 90% preservative, 8 hour) | MBC test growth score (Gram positive rods (S); 90% preservative, 24 hour) | MBC test growth score (Gram positive rods (S); 90% preservative, 48 hour) | MBC test growth score (Gram positive rods (S); 90% preservative, 72 hour) | MBC test growth score (Gram positive rods (S); 90% preservative, 7 day) | MBC test growth score (Gram positive rods (S); 90% preservative, 14 day) | MBC test growth score (Gram positive rods (S); 100% preservative, 8 hour) | MBC test growth score (Gram positive rods (S); 100% preservative, 24 hour) | MBC test growth score (Gram positive rods (S); 100% preservative, 48 hour) | MBC test growth score (Gram positive rods (S); 100% preservative, 72 hour) | MBC test growth score (Gram positive rods (S); 100% preservative, 7 day) | MBC test growth score (Gram positive rods (S); 100% preservative, 14 day) | MBC test growth score ([1]; 10% preservative, 8 hour) | MBC test growth score ([1]; 10% preservative, 24 hour) | MBC test growth score ([1]; 10% preservative, 48 hour) | MBC test growth score ([1]; 10% preservative, 72 hour) | MBC test growth score ([1]; 10% preservative, 7 day) | MBC test growth score ([1]; 20% preservative, 8 hour) | MBC test growth score ([1]; 20% preservative, 24 hour) | MBC test growth score ([1]; 20% preservative, 48 hour) | MBC test growth score ([1]; 20% preservative, 72 hour) | MBC test growth score ([1]; 20% preservative, 7 day) | MBC test growth score ([1]; 30% preservative, 8 hour) | MBC test growth score ([1]; 30% preservative, 24 hour) | MBC test growth score ([1]; 30% preservative, 48 hour) | MBC test growth score ([1]; 30% preservative, 72 hour) | MBC test growth score ([1]; 30% preservative, 7 day) | MBC test growth score ([1]; 40% preservative, 8 hour) | MBC test growth score ([1]; 40% preservative, 24 hour) | MBC test growth score ([1]; 40% preservative, 48 hour) | MBC test growth score ([1]; 40% preservative, 72 hour) | MBC test growth score ([1]; 40% preservative, 7 day) | MBC test growth score ([1]; 50% preservative, 8 hour) | MBC test growth score ([1]; 50% preservative, 24 hour) | MBC test growth score ([1]; 50% preservative, 48 hour) | MBC test growth score ([1]; 50% preservative, 72 hour) | MBC test growth score ([1]; 50% preservative, 7 day) | MBC test growth score ([1]; 60% preservative, 8 hour) | MBC test growth score ([1]; 60% preservative, 24 hour) | MBC test growth score ([1]; 60% preservative, 48 hour) | MBC test growth score ([1]; 60% preservative, 72 hour) | MBC test growth score ([1]; 60% preservative, 7 day) | MBC test growth score ([1]; 70% preservative, 8 hour) | MBC test growth score ([1]; 70% preservative, 24 hour) | MBC test growth score ([1]; 70% preservative, 48 hour) | MBC test growth score ([1]; 70% preservative, 72 hour) | MBC test growth score ([1]; 70% preservative, 7 day) | MBC test growth score ([1]; 80% preservative, 8 hour) | MBC test growth score ([1]; 80% preservative, 24 hour) | MBC test growth score ([1]; 80% preservative, 48 hour) | MBC test growth score ([1]; 80% preservative, 72 hour) | MBC test growth score ([1]; 80% preservative, 7 day) | MBC test growth score ([1]; 90% preservative, 8 hour) | MBC test growth score ([1]; 90% preservative, 24 hour) | MBC test growth score ([1]; 90% preservative, 48 hour) | MBC test growth score ([1]; 90% preservative, 72 hour) | MBC test growth score ([1]; 90% preservative, 7 day) | MBC test growth score ([1]; 100% preservative, 8 hour) | MBC test growth score ([1]; 100% preservative, 24 hour) | MBC test growth score ([1]; 100% preservative, 48 hour) | MBC test growth score ([1]; 100% preservative, 72 hour) | MBC test growth score ([1]; 100% preservative, 7 day)
+/−: MBC test growth score ([1]; 10% preservative, 14 day) | MBC test growth score ([1]; 20% preservative, 14 day) | MBC test growth score ([1]; 30% preservative, 14 day) | MBC test growth score ([1]; 40% preservative, 14 day) | MBC test growth score ([1]; 50% preservative, 14 day) | MBC test growth score ([1]; 60% preservative, 14 day) | MBC test growth score ([1]; 70% preservative, 14 day) | MBC test growth score ([1]; 80% preservative, 14 day) | MBC test growth score ([1]; 90% preservative, 14 day) | MBC test growth score ([1]; 100% preservative, 14 day)
